Experimental data reported in the supplement of paper PMC13380429.

Columns and labels:
Settings in all cases: 72 h
U2OS [1] = assay: cell viability relative to DMSO; higher = less toxic
Caco-2 [2] = assay: as above
HepG2 [3] = assay: as above
Vero E6 [4] = assay: as above
U2OS [5] = assay: relative viability EC50 (midpoint between 100% and the lowest measured viability); higher = less toxic
HepG2 [6] = assay: as above
Vero E6 [7] = assay: as above
U2OS [8] = assay: drug sensitivity score (DSS) for viability; higher = more toxic; extreme values may be limits of the assay
Caco-2 [9] = assay: as above
HepG2 [10] = assay: as above
Vero E6 [11] = assay: as above
Calu-3 [12] = assay: cell viability relative to DMSO; higher = less toxic
Calu-3 [13] = assay: relative viability EC50 (midpoint between 100% and the lowest measured viability); higher = less toxic
Caco-2 [14] = assay: as above
Calu-3 [15] = assay: drug sensitivity score (DSS) for viability; higher = more toxic; extreme values may be limits of the assay

Structure (SMILES)	cell viability (U2OS [1]; 1 nM) [%]	cell viability (U2OS [1]; 10 nM) [%]	cell viability (U2OS [1]; 100 nM) [%]	cell viability (U2OS [1]; 1000 nM) [%]	cell viability (U2OS [1]; 10000 nM) [%]	cell viability (Caco-2 [2]; 1 nM) [%]	cell viability (Caco-2 [2]; 10 nM) [%]	cell viability (Caco-2 [2]; 100 nM) [%]	cell viability (Caco-2 [2]; 1000 nM) [%]	cell viability (Caco-2 [2]; 10000 nM) [%]	cell viability (HepG2 [3]; 1 nM) [%]	cell viability (HepG2 [3]; 10 nM) [%]	cell viability (HepG2 [3]; 100 nM) [%]	cell viability (HepG2 [3]; 1000 nM) [%]	cell viability (HepG2 [3]; 10000 nM) [%]	cell viability (Vero E6 [4]; 1 nM) [%]	cell viability (Vero E6 [4]; 10 nM) [%]	cell viability (Vero E6 [4]; 100 nM) [%]	cell viability (Vero E6 [4]; 1000 nM) [%]	cell viability (Vero E6 [4]; 10000 nM) [%]	relative viability EC50 (U2OS [5]) [µM]	relative viability EC50 (HepG2 [6]) [µM]	relative viability EC50 (Vero E6 [7]) [µM]	drug sensitivity score (U2OS [8])	drug sensitivity score (Caco-2 [9])	drug sensitivity score (HepG2 [10])	drug sensitivity score (Vero E6 [11])	cell viability (Calu-3 [12]; 1 nM) [%]	cell viability (Calu-3 [12]; 10 nM) [%]	cell viability (Calu-3 [12]; 100 nM) [%]	cell viability (Calu-3 [12]; 1000 nM) [%]	cell viability (Calu-3 [12]; 10000 nM) [%]	relative viability EC50 (Calu-3 [13]) [µM]	relative viability EC50 (Caco-2 [14]) [µM]	drug sensitivity score (Calu-3 [15])
Cc1ccc(NC(=O)C(C)C)cc1C1CCN(Cc2ccc(Oc3ccc(F)c(F)c3)cc2)CC1	96.2	95.8	99.5	94.6	80.3	90.7	101	98.4	98.3	62.8	105	97.4	97.4	103	31.5	106	102	99.5	100	75.3	> 10	3.39	> 10	1.2	2	3.5	0.9	–	–	–	–	–	–	–	–
O=C(NC[C@H](O)CN1CCc2ccccc2C1)c1cc(NC2COC2)ncn1	102	97	97.5	100	101	96.1	92	91	95.5	91.2	109	104	102	88.2	64.4	97.5	97.2	100	95.8	98.9	> 10	–	> 10	0	0	3.4	0	103	113	104	102	91	> 10	> 10	0
O=C(O)CCc1c[nH]c2ccccc12	98.5	108	106	107	106	–	–	–	–	–	116	96.7	110	105	108	97.3	99.5	104	102	102	> 10	> 10	> 10	0	–	0	0	98.7	95.5	95.2	90.4	107	> 10	–	0
O=C1NC(=O)/C(=C/c2ccc3c(c2)OC(F)(F)O3)S1	94.3	96.2	89.6	91.2	51.3	94.5	97.9	84.6	81	35.1	95.8	95.6	101	98.9	75.2	103	94.6	87.8	63	45.1	–	> 10	0.401	4	5.6	1.1	8.2	97.4	89.3	46.8	30.5	24.7	0.0473	1.62	20.7
